Experimental data: patent US20150296790A1, “SILICON-CONTAINING COMPOUND AQUEOUS SOLUTION AND ANTIBACTERIAL/ANTIVIRAL AGENT INCLUDING SAID SOLUTION” (JEX CO., LTD., priority 2012, published 2015)

Test: Solubility of Silicon-Containing Compound E in aqueous CD solutions (clarity and stability, visual)
Assay type: physicochemical
Parameters: key to Solubility of Compound E: Stability: OK: When the aqueous solutions of the CD and the Silicon-Containing Compound E did not exhibit the conditions such as presence of precipitates and deposits, the solutions were considered as stable; NG: When the aqueous solutions of the CD and the Silicon-Containing Compound E exhibited the conditions such as presence of precipitates and deposits, the solutions were not considered as stable; key to Solubility of Compound E: Clarity: When the aqueous solutions of the CD and the Silicon-Containing Compound E were clear, the solutions were rated as “OK”; When the aqueous solutions of the CD and the Silicon-Containing Compound E were not clear, the solutions were rated as “NG”
Settings: purified water
Method: To determine “Solubility of Compound E” in the tables, the Silicon-Containing Compound E as another solute was added at respective ratios shown in the respective tables (see “Ratio of Compound E” in the tables) to the respective aqueous CD solutions after evaluation of the solubility of CD, and then the mixture was stirred on a shaker to prepare the respective aqueous solutions of the CD and the Silicon-Containing Compound E. Immediately after preparation of the aqueous solutions of the CD and the Silicon-Containing Compound E, the clarity of the aqueous solutions was visually evaluated. When the aqueous solutions of the CD and the Silicon-Containing Compound E were clear, the solutions were rated as “OK”. When the aqueous solutions of the CD and the Silicon-Containing Compound E were not clear, the solutions were rated as “NG”. “Stability” in “Solubility of Compound E” in the tables was determined by allowing the respective aqueous solutions of the CD and the Silicon-Containing Compound E after preparation to stand at ambient temperature for a predetermined period and then visually evaluating the conditions (such as presence of precipitates and deposits) of the solutions.

[1] = DEXYPEARL 1 w/w %, Compound E 0.1 w/w %
[2] = DEXYPEARL 2 w/w %, Compound E 0.1 w/w %
[3] = DEXYPEARL 3 w/w %, Compound E 0.1 w/w %
[4] = DEXYPEARL 4 w/w %, Compound E 0.1 w/w %
[5] = DEXYPEARL 5 w/w %, Compound E 0.1 w/w %
[6] = DEXYPEARL 6 w/w %, Compound E 0.1 w/w %
[7] = DEXYPEARL 7 w/w %, Compound E 0.1 w/w %
[8] = DEXYPEARL 8 w/w %, Compound E 0.1 w/w %
[9] = DEXYPEARL 9 w/w %, Compound E 0.1 w/w %
[10] = DEXYPEARL 10 w/w %, Compound E 0.1 w/w %
[11] = DEXYPEARL 20 w/w %, Compound E 0.1 w/w %
[12] = DEXYPEARL 30 w/w %, Compound E 0.1 w/w %
[13] = DEXYPEARL 40 w/w %, Compound E 0.1 w/w %
[14] = ISOELEAT 1 w/w %, Compound E 0.1 w/w %
[15] = ISOELEAT 2 w/w %, Compound E 0.1 w/w %
[16] = ISOELEAT 3 w/w %, Compound E 0.1 w/w %
[17] = ISOELEAT 4 w/w %, Compound E 0.1 w/w %
[18] = ISOELEAT 5 w/w %, Compound E 0.1 w/w %
[19] = ISOELEAT 6 w/w %, Compound E 0.1 w/w %
[20] = ISOELEAT 7 w/w %, Compound E 0.1 w/w %
[21] = ISOELEAT 8 w/w %, Compound E 0.1 w/w %
[22] = ISOELEAT 9 w/w %, Compound E 0.1 w/w %
[23] = ISOELEAT 10 w/w %, Compound E 0.1 w/w %
[24] = ISOELEAT 20 w/w %, Compound E 0.1 w/w %
[25] = ISOELEAT 30 w/w %, Compound E 0.1 w/w %
[26] = ISOELEAT 40 w/w %, Compound E 0.1 w/w %
[27] = ISOELEAT 50 w/w %, Compound E 0.1 w/w %
[28] = α-CD 1 w/w %, Compound E 0.1 w/w %
[29] = α-CD 1 w/w %, Compound E 0.2 w/w %
[30] = α-CD 1 w/w %, Compound E 0.3 w/w %
[31] = α-CD 1 w/w %, Compound E 0.4 w/w %
[32] = α-CD 1 w/w %, Compound E 0.5 w/w %
[33] = α-CD 1 w/w %, Compound E 0.6 w/w %
[34] = α-CD 1 w/w %, Compound E 0.7 w/w %
[35] = α-CD 1 w/w %, Compound E 0.8 w/w %
[36] = α-CD 1 w/w %, Compound E 0.9 w/w %
[37] = α-CD 1 w/w %, Compound E 1 w/w %
[38] = α-CD 7 w/w %, Compound E 0.1 w/w %
[39] = α-CD 7 w/w %, Compound E 0.2 w/w %
[40] = α-CD 7 w/w %, Compound E 0.3 w/w %
[41] = α-CD 7 w/w %, Compound E 0.4 w/w %
[42] = α-CD 7 w/w %, Compound E 0.5 w/w %
[43] = α-CD 7 w/w %, Compound E 0.6 w/w %
[44] = α-CD 7 w/w %, Compound E 0.7 w/w %
[45] = α-CD 7 w/w %, Compound E 0.8 w/w %
[46] = α-CD 7 w/w %, Compound E 0.9 w/w %
[47] = α-CD 7 w/w %, Compound E 1 w/w %
[48] = β-CD 1 w/w %, Compound E 0.1 w/w %

CCCCCCCCCCCCCCCCCC[N+](C)(C)CCC[Si](OCC)(OCC)OCC.[Cl-] [Compound E, Octadecyl dimethyl(3-triethoxysilylpropyl)ammonium chloride]
Solubility of Compound E: Clarity [1]: OK
Solubility of Compound E: Stability [1]: OK
Solubility of Compound E: Clarity [2]: OK
Solubility of Compound E: Stability [2]: OK
Solubility of Compound E: Clarity [3]: OK
Solubility of Compound E: Stability [3]: OK
Solubility of Compound E: Clarity [4]: OK
Solubility of Compound E: Stability [4]: OK
Solubility of Compound E: Clarity [5]: OK
Solubility of Compound E: Stability [5]: OK
Solubility of Compound E: Clarity [6]: OK
Solubility of Compound E: Stability [6]: OK
Solubility of Compound E: Clarity [7]: OK
Solubility of Compound E: Stability [7]: OK
Solubility of Compound E: Clarity [8]: OK
Solubility of Compound E: Stability [8]: OK
Solubility of Compound E: Clarity [9]: OK
Solubility of Compound E: Stability [9]: OK
Solubility of Compound E: Clarity [10]: OK
Solubility of Compound E: Stability [10]: OK
Solubility of Compound E: Clarity [11]: OK
Solubility of Compound E: Stability [11]: NG
Solubility of Compound E: Clarity [12]: NG
Solubility of Compound E: Stability [12]: NG
Solubility of Compound E: Clarity [13]: NG
Solubility of Compound E: Stability [13]: NG
Solubility of Compound E: Clarity [14]: OK
Solubility of Compound E: Stability [14]: OK
Solubility of Compound E: Clarity [15]: OK
Solubility of Compound E: Stability [15]: OK
Solubility of Compound E: Clarity [16]: OK
Solubility of Compound E: Stability [16]: OK
Solubility of Compound E: Clarity [17]: OK
Solubility of Compound E: Stability [17]: OK
Solubility of Compound E: Clarity [18]: OK
Solubility of Compound E: Stability [18]: OK
Solubility of Compound E: Clarity [19]: OK
Solubility of Compound E: Stability [19]: OK
Solubility of Compound E: Clarity [20]: OK
Solubility of Compound E: Stability [20]: OK
Solubility of Compound E: Clarity [21]: OK
Solubility of Compound E: Stability [21]: OK
Solubility of Compound E: Clarity [22]: OK
Solubility of Compound E: Stability [22]: OK
Solubility of Compound E: Clarity [23]: NG
Solubility of Compound E: Stability [23]: NG
Solubility of Compound E: Clarity [24]: NG
Solubility of Compound E: Stability [24]: NG
Solubility of Compound E: Clarity [25]: NG
Solubility of Compound E: Stability [25]: NG
Solubility of Compound E: Clarity [26]: NG
Solubility of Compound E: Stability [26]: NG
Solubility of Compound E: Clarity [27]: NG
Solubility of Compound E: Stability [27]: NG
Solubility of Compound E: Clarity [28]: NG
Solubility of Compound E: Stability [28]: OK
Solubility of Compound E: Clarity [29]: NG
Solubility of Compound E: Stability [29]: OK
Solubility of Compound E: Clarity [30]: NG
Solubility of Compound E: Stability [30]: OK
Solubility of Compound E: Clarity [31]: NG
Solubility of Compound E: Stability [31]: OK
Solubility of Compound E: Clarity [32]: NG
Solubility of Compound E: Stability [32]: OK
Solubility of Compound E: Clarity [33]: NG
Solubility of Compound E: Stability [33]: OK
Solubility of Compound E: Clarity [34]: NG
Solubility of Compound E: Stability [34]: OK
Solubility of Compound E: Clarity [35]: NG
Solubility of Compound E: Stability [35]: NG
Solubility of Compound E: Clarity [36]: NG
Solubility of Compound E: Stability [36]: NG
Solubility of Compound E: Clarity [37]: NG
Solubility of Compound E: Stability [37]: NG
Solubility of Compound E: Clarity [38]: NG
Solubility of Compound E: Stability [38]: OK
Solubility of Compound E: Clarity [39]: NG
Solubility of Compound E: Stability [39]: OK
Solubility of Compound E: Clarity [40]: NG
Solubility of Compound E: Stability [40]: OK
Solubility of Compound E: Clarity [41]: NG
Solubility of Compound E: Stability [41]: OK
Solubility of Compound E: Clarity [42]: NG
Solubility of Compound E: Stability [42]: OK
Solubility of Compound E: Clarity [43]: NG
Solubility of Compound E: Stability [43]: OK
Solubility of Compound E: Clarity [44]: NG
Solubility of Compound E: Stability [44]: OK
Solubility of Compound E: Clarity [45]: NG
Solubility of Compound E: Stability [45]: OK
Solubility of Compound E: Clarity [46]: NG
Solubility of Compound E: Stability [46]: OK
Solubility of Compound E: Clarity [47]: NG
Solubility of Compound E: Stability [47]: OK
Solubility of Compound E: Clarity [48]: NG
Solubility of Compound E: Stability [48]: OK
Solubility of Compound E: Clarity (β-CD 1 w/w %, Compound E 0.2 w/w %): NG
